Measured values: US20240158369A1, “PYRIMIDINE COMPOUND AS WEE-1 INHIBITOR” (WIGEN BIOMEDICINE TECHNOLOGY (SHANGHAI) CO., LTD., priority 2021, published 2024)

target: recombinant protein Wee-1 (Homo sapiens (Human), UniProt P30291); assay: HTRF assay for inhibiting enzymatic activity of recombinant protein Wee-1; assay type: biochemical; conditions: compounds up to 200 nM, read-out: (IC50) Inhibitory activity against recombinant protein Wee-1
Method: The inhibitory effect of the compounds on the enzyme activity of recombinant protein Wee-1 was determined by HTRF. The procedures are as follows:
After DMSO or serially diluted compounds (up to 200 nM, 1:5 diluted) and recombinant proteins were co-incubated in a kinase buffer at 37° C. for 30 min before Fluorescein-PolyGAT and ATP were added, and the reaction was initiated by addition of a substrate. After incubation at room temperature for 90 min, an antibody and a detection solution were added, and after further incubation at room temperature for 60 min, fluorescence values were detected (excitation wavelength: 340 nm, emission wavelengths: 495 and 520 nm). The 520 nm/495 nm fluorescence intensity ratio value was calculated, and compared with that of the DMSO group, and then the inhibition percentages and IC50 values of the compounds were calculated.

Chain of recombinant protein Wee-1 (P30291 whole entry): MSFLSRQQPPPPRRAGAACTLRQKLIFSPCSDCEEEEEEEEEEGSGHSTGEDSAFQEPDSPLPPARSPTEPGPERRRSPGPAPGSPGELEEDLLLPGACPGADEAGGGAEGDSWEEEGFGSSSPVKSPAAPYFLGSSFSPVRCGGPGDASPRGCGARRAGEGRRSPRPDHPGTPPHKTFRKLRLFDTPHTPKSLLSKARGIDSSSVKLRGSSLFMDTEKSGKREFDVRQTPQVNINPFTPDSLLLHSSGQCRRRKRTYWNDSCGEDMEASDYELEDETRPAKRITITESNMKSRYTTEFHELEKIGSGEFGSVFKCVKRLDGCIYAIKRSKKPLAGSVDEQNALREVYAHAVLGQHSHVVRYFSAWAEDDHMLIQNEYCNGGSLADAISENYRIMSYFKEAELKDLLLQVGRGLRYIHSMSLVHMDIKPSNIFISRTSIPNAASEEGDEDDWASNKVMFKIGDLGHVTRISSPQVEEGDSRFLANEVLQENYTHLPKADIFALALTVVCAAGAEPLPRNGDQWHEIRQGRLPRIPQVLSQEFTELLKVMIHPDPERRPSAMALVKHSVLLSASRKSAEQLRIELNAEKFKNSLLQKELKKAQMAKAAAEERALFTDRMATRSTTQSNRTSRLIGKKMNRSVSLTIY

SMILES	IC50 [nM]
CN1CCc2c(cc(Nc3ncc(C#N)c(Nc4cccc(N=S(C)(C)=O)n4)n3)cc2C(F)F)C1 [Compound 21]	≤ 10
CCOc1cc(Nc2ncc(C#N)c(Nc3cccc(N=S(C)(C)=O)n3)n2)cc2c1CCN(C)C2 [Compound 23]	≤ 10
CC(C)Oc1cc(Nc2ncc(C#N)c(Nc3cccc(N=S(C)(C)=O)n3)n2)cc2c1CCN(C)C2 [Compound 24]	≤ 10
CN1CCc2c(Cl)cc(Nc3ncc(C#N)c(Nc4cccc(N=S(C)(C)=O)n4)n3)cc2C1 [Compound 26]	≤ 10
CN1CCc2c(Br)cc(Nc3ncc(C#N)c(Nc4cccc(N=S(C)(C)=O)n4)n3)cc2C1 [Compound 27]	≤ 10
Cc1cc(Nc2ncc(C#N)c(Nc3cccc(N=S(C)(C)=O)n3)n2)cc2c1C1(CC1)CN(C)C2 [Compound 30]	≤ 10
CCc1cc(Nc2ncc(C#N)c(Nc3cccc(N=S(C)(C)=O)n3)n2)cc2c1C1(CC1)CN(C)C2 [Compound 31]	≤ 10
CN1Cc2cc(Nc3ncc(C#N)c(Nc4cccc(N=S(C)(C)=O)n4)n3)cc(C3CC3)c2C2(CC2)C1 [Compound 32]	≤ 10
CC(C)c1cc(Nc2ncc(C#N)c(Nc3cccc(N=S(C)(C)=O)n3)n2)cc2c1C1(CC1)CN(C)C2 [Compound 33]	≤ 10
COc1cc(Nc2ncc(C#N)c(Nc3cccc(N=S(C)(C)=O)n3)n2)cc2c1C1(CC1)CN(C)C2 [Compound 34]	≤ 10
CN1Cc2cc(Nc3ncc(C#N)c(Nc4cccc(N=S(C)(C)=O)n4)n3)ccc2C(C)(C)C1 [Compound 35]	≤ 10
Cc1cc(Nc2ncc(C#N)c(Nc3cccc(N=S(C)(C)=O)n3)n2)cc2c1C(C)(C)CN(C)C2 [Compound 36]	≤ 10
CCc1cc(Nc2ncc(C#N)c(Nc3cccc(N=S(C)(C)=O)n3)n2)cc2c1C(C)(C)CN(C)C2 [Compound 37]	≤ 10
CC(C)c1cc(Nc2ncc(C#N)c(Nc3cccc(N=S(C)(C)=O)n3)n2)cc2c1C(C)(C)CN(C)C2 [Compound 38]	≤ 10
CN1Cc2cc(Nc3ncc(C#N)c(Nc4cccc(N=S(C)(C)=O)n4)n3)cc(C3CC3)c2C(C)(C)C1 [Compound 39]	≤ 10
COc1cc(Nc2ncc(C#N)c(Nc3cccc(N=S(C)(C)=O)n3)n2)cc2c1C(C)(C)CN(C)C2 [Compound 40]	≤ 10
CN1CCc2c(cc(Nc3ncc(C#N)c(Nc4cccc(N=S(C)(C)=O)n4)n3)cc2N(C)C)C1 [Compound 44]	≤ 10
CCN1CCc2ccc(Nc3ncc(C#N)c(Nc4cccc(N=S(C)(C)=O)n4)n3)cc2C1 [Compound 45]	≤ 10
CS(C)(=O)=Nc1cccc(Nc2nc(Nc3ccc4c(c3)CN(C3CC3)CC4)ncc2C#N)n1 [Compound 47]	≤ 10
CS(C)(=O)=Nc1cccc(Nc2nc(Nc3ccc4c(c3)CN(CCO)CC4)ncc2C#N)n1 [Compound 48]	≤ 10
COCCN1CCc2ccc(Nc3ncc(C#N)c(Nc4cccc(N=S(C)(C)=O)n4)n3)cc2C1 [Compound 49]	≤ 10
CN(C)CCN1CCc2ccc(Nc3ncc(C#N)c(Nc4cccc(N=S(C)(C)=O)n4)n3)cc2C1 [Compound 50]	≤ 10
CN(C)C1CCc2ccc(Nc3ncc(C#N)c(Nc4cccc(N=S(C)(C)=O)n4)n3)cc2C1 (stereo not drawn) [Compound 51]	≤ 10
CN(C)C1CCCc2ccc(Nc3ncc(C#N)c(Nc4cccc(N=S(C)(C)=O)n4)n3)cc2C1 (stereo not drawn) [Compound 53]	≤ 10
CN1CCCc2ccc(Nc3ncc(C#N)c(Nc4cccc(N=S(C)(C)=O)n4)n3)cc2C1 [Compound 54]	≤ 10
CN(C)C1CC=Cc2ccc(Nc3ncc(C#N)c(Nc4cccc(N=S(C)(C)=O)n4)n3)cc2C1 (stereo not drawn) [Compound 56]	≤ 10
CN1CCOc2ccc(Nc3ncc(C#N)c(Nc4cccc(N=S(C)(C)=O)n4)n3)cc2C1 [Compound 57]	≤ 10

SMILES	IC50 [nM]
CN1CCSc2ccc(Nc3ncc(C#N)c(Nc4cccc(N=S(C)(C)=O)n4)n3)cc2C1 [Compound 58]	≤ 10
CN1Cc2ccc(Nc3ncc(C#N)c(Nc4cccc(N=S(C)(C)=O)n4)n3)cc2C1 [Compound 59]	≤ 10
CN1CCc2ccc(Nc3ncc(C#N)c(Nc4ccnc(N=S(C)(C)=O)c4)n3)cc2C1 [Compound 65]	≤ 10
CN1CCc2ccc(Nc3ncc(C#N)c(Nc4cncc(N=S(C)(C)=O)c4)n3)cc2C1 [Compound 66]	≤ 10
CN1CCc2ccc(Nc3ncc(C#N)c(Nc4cc(N=S(C)(C)=O)ccn4)n3)cc2C1 [Compound 67]	≤ 10
CN1CCc2ccc(Nc3ncc(C#N)c(Nc4cncc(N=S(C)(C)=O)n4)n3)cc2C1 [Compound 68]	≤ 10
CN1CCc2ccc(Nc3ncc(C#N)c(Nc4ccnc(N=S(C)(C)=O)n4)n3)cc2C1 [Compound 69]	≤ 10
CN1CCc2ccc(Nc3ncc(C#N)c(Nc4nccc(N=S(C)(C)=O)n4)n3)cc2C1 [Compound 70]	≤ 10
CN1CCc2ccc(Nc3ncc(C#N)c(Nc4cc5ccccc5c(N=S(C)(C)=O)n4)n3)cc2C1 [Compound 71]	≤ 10
CN1CCc2ccc(Nc3ncc(C#N)c(Nc4nc(N=S(C)(C)=O)cc5ccccc45)n3)cc2C1 [Compound 72]	≤ 10
Cc1cc(Nc2ncc(C#N)c(Nc3ccc(F)c(N=S(C)(C)=O)n3)n2)cc2c1CCN(C)C2 [Compound 73]	≤ 10
Cc1cc(Nc2ncc(C#N)c(Nc3cc(F)cc(N=S(C)(C)=O)n3)n2)cc2c1CCN(C)C2 [Compound 74]	≤ 10
Cc1cc(Nc2ncc(C#N)c(Nc3nc(N=S(C)(C)=O)ccc3F)n2)cc2c1CCN(C)C2 [Compound 75]	≤ 10
CN1CCc2ccc(Nc3ncc(C#N)c(-n4ccc5c(N=S(C)(C)=O)cccc54)n3)cc2C1 [Compound 76]	≤ 10
CN1CCc2ccc(Nc3ncc(C#N)c(Nc4nc(N=S(C)(C)=O)cc5[nH]ccc45)n3)cc2C1 [Compound 81]	≤ 10
CN1CCc2ccc(Nc3ncc(C#N)c(Nc4nc(N=S(C)(C)=O)cc5c4CCN5)n3)cc2C1 [Compound 82]	≤ 10
CN1CCc2ccc(Nc3ncc(C#N)c(Nc4cc5c(c(N=S(C)(C)=O)n4)CCC5)n3)cc2C1 [Compound 83]	≤ 10
COc1ccc(Nc2nc(Nc3ccc4c(c3)CN(C)CC4)ncc2C#N)nc1N=S(C)(C)=O [Compound 84]	≤ 10
CN1CCc2c(cc(Nc3ncc(C#N)c(Nc4cccc(N=S(C)(C)=O)n4)n3)cc2C(C)(C)C)C1 [Compound 86]	≤ 10
Cc1cc(Nc2ncc(C#N)c(Nc3ccc4c(n3)N=S(C)(=O)C4)n2)cc2c1CCN(C)C2 (stereo not drawn) [Compound 88]	> 50
CCc1cc(Nc2ncc(C#N)c(Nc3ccc(F)c(N=S(C)(C)=O)n3)n2)cc2c1CCN(C)C2 [Compound 89]	≤ 10
COc1cc(Nc2ncc(C#N)c(Nc3ccc(F)c(N=S(C)(C)=O)n3)n2)cc2c1CCN(C)C2 [Compound 90]	≤ 10
CC(C)c1cc(Nc2ncc(C#N)c(Nc3ccc(F)c(N=S(C)(C)=O)n3)n2)cc2c1CCN(C)C2 [Compound 91]	≤ 10
CCOc1cc(Nc2ncc(C#N)c(Nc3ccc(F)c(N=S(C)(C)=O)n3)n2)cc2c1CCN(C)C2 [Compound 92]	≤ 10
CC(C)Oc1cc(Nc2ncc(C#N)c(Nc3ccc(F)c(N=S(C)(C)=O)n3)n2)cc2c1CCN(C)C2 [Compound 93]	≤ 10
CN1CCc2c(cc(Nc3ncc(C#N)c(Nc4ccc(F)c(N=S(C)(C)=O)n4)n3)cc2C2CC2)C1 [Compound 94]	≤ 10
CN1CCc2c(cc(Nc3ncc(C#N)c(Nc4cccc(N=S(C)(C)=O)n4)n3)cc2N2CCC2)C1 [Compound 95]	≤ 10
